Measurements as given in ChEMBL document CHEMBL1201862, “PubChem BioAssay data set” (2004).
Where “and” joins values, the source holds several entries; their conditions need not be identical. Equal entries are not always repeated.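 Values below derive from 48-hour exposures of cells grown in 96-well plates, with endpoints linearly interpolated between the two concentrations bracketing the appropriate inhibition level. GI50 marks 50% less growth.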 Calls of active or inactive are those of the source. Cut-off read from the data, not from the text of the source: active = GI50 up to about 1.1 µM and inactive = higher.

What was measured:
Test in all cases: DTP human tumour cell line panel, 48 h
[1] = tested on: SK-OV-3
[2] = tested on: HT-29
[3] = tested on: UO-31
[4] = tested on: SK-MEL-28
[5] = tested on: M14
[6] = tested on: HL-60
[7] = tested on: A498
[8] = tested on: CCRF-CEM
[9] = tested on: SK-MEL-2
[10] = tested on: HCC 2998
[11] = tested on: IGROV-1
[12] = tested on: SR
[13] = tested on: LXFL 529
[14] = tested on: SF-295
[15] = tested on: HOP-62
[16] = tested on: HOP-18
[17] = tested on: NCI/ADR-RES
[18] = tested on: SF-539
[19] = tested on: SF-268
[20] = tested on: RPMI-8226
[21] = tested on: SNB-78
[22] = tested on: UACC-62
[23] = tested on: MCF7
[24] = tested on: NCI-H522
[25] = tested on: NCI-H23
[26] = tested on: SNB-19
[27] = tested on: TK-10
[28] = tested on: K562
[29] = tested on: RXF 631
[30] = tested on: NCI-H226
[31] = tested on: LOX IMVI
[32] = tested on: 786-0
[33] = tested on: A549
[34] = tested on: SNB-75
[35] = tested on: ACHN
[36] = tested on: Malme-3M
[37] = tested on: OVCAR-8
[38] = tested on: OVCAR-4
[39] = tested on: KM-20L2
[40] = tested on: SK-MEL-5
[41] = tested on: HCT-15
[42] = tested on: DLD-1
[43] = tested on: M19-MEL
[44] = tested on: EKVX
[45] = tested on: KM12
[46] = tested on: UACC-257
[47] = tested on: HOP-92
[48] = tested on: HCT-116
[49] = tested on: MOLT-4
[50] = tested on: CAKI-1
[51] = tested on: SN12C
[52] = tested on: COLO 205
[53] = tested on: U-251
[54] = tested on: SW-620
[55] = tested on: NCI-H460
[56] = tested on: OVCAR-5
[57] = tested on: OVCAR-3
[58] = tested on: XF498
[59] = tested on: RXF 393
[60] = tested on: DMS-114
[61] = tested on: DMS-273

How did the GI50 [1] turn out when NC(=O)C#CC(N)=O was run?
Its GI50 is > 100 µM (inactive) and 108 µM (inactive).

And the GI50 [2]?
The GI50 was 20.8 µM (inactive) and 41.5 µM (inactive).

What about the GI50 [3] of the same compound?
The GI50 was 24 µM (inactive) and 28.5 µM (inactive).

What about the GI50 [4] of the same compound?
Its GI50 is 7.08 µM (inactive) and 14 µM (inactive).

And the GI50 [5]?
Its GI50 is 19.2 µM (inactive).

And the GI50 [6]?
Its GI50 is 2.52 µM (inactive) and 1.71 µM (inactive).

What about the GI50 [7] of the same compound?
Its GI50 is > 100 µM (inactive) and 53.1 µM (inactive).

What about the GI50 [8] of the same compound?
Its GI50 is 3.08 µM (inactive) and 1.94 µM (inactive).

What about the GI50 [9] of the same compound?
Its GI50 is 21.9 µM (inactive) and 13.7 µM (inactive).

What about the GI50 [10] of the same compound?
The GI50 was > 100 µM (inactive) and 58.3 µM (inactive).

What about the GI50 [11] of the same compound?
Its GI50 is > 100 µM (inactive) and 67.5 µM (inactive).

And the GI50 [12]?
Its GI50 is 14.6 µM (inactive).

And the GI50 [13]?
The GI50 was 64.9 µM (inactive).

And the GI50 [14]?
The GI50 was 13.8 µM (inactive) and 25.2 µM (inactive).

And the GI50 [15]?
The GI50 was > 100 µM (inactive) and 69.2 µM (inactive).

What about the GI50 [16] of the same compound?
The GI50 was 18.2 µM (inactive) and 28.2 µM (inactive).

And the GI50 [17]?
Its GI50 is 7.14 µM (inactive).

What about the GI50 [18] of the same compound?
Its GI50 is 24.4 µM (inactive) and 19.5 µM (inactive).

What about the GI50 [19] of the same compound?
The GI50 was 60.3 µM (inactive) and 38.9 µM (inactive).

And the GI50 [20]?
The GI50 was 2.14 µM (inactive).

What about the GI50 [21] of the same compound?
The GI50 was 54 µM (inactive) and 47.3 µM (inactive).

And the GI50 [22]?
The GI50 was 19.4 µM (inactive) and 14.6 µM (inactive).

What about the GI50 [23] of the same compound?
The GI50 was 19.3 µM (inactive).

And the GI50 [24]?
The GI50 was 21.2 µM (inactive) and 14.2 µM (inactive).

What about the GI50 [25] of the same compound?
Its GI50 is 58.5 µM (inactive) and > 91.2 µM (inactive).

And the GI50 [26]?
Its GI50 is > 100 µM (inactive) and 121 µM (inactive).

And the GI50 [27]?
Its GI50 is 20.8 µM (inactive).

What about the GI50 [28] of the same compound?
Its GI50 is 2.91 µM (inactive) and 4.66 µM (inactive).

What about the GI50 [29] of the same compound?
The GI50 was > 100 µM (inactive).

What about the GI50 [30] of the same compound?
Its GI50 is > 100 µM (inactive) and 63 µM (inactive).

What about the GI50 [31] of the same compound?
Its GI50 is 14.5 µM (inactive) and 18.3 µM (inactive).

And the GI50 [32]?
The GI50 was 29.2 µM (inactive).

What about the GI50 [33] of the same compound?
Its GI50 is 73.3 µM (inactive).

What about the GI50 [34] of the same compound?
The GI50 was 30.1 µM (inactive) and 42.2 µM (inactive).

And the GI50 [35]?
Its GI50 is > 100 µM (inactive).

And the GI50 [36]?
Its GI50 is 13.1 µM (inactive) and 7.53 µM (inactive).

Which results are given for Cc1c(O)c(=O)ccn1CCO?
GI50 [1]: > 100 µM (inactive); GI50 [2]: > 100 µM (inactive); GI50 [3]: > 100 µM (inactive); GI50 [4]: > 100 µM (inactive); GI50 [5]: > 100 µM (inactive); GI50 [6]: > 100 µM (inactive); GI50 [7]: > 100 µM (inactive); GI50 [37]: > 100 µM (inactive); GI50 [38]: > 100 µM (inactive); GI50 [8]: > 100 µM (inactive); GI50 [39]: > 100 µM (inactive); GI50 [40]: > 100 µM (inactive); GI50 [9]: > 100 µM (inactive); GI50 [41]: > 100 µM; GI50 [12]: > 100 µM (inactive); GI50 [42]: > 100 µM (inactive); GI50 [13]: > 100 µM (inactive); GI50 [14]: > 100 µM (inactive); GI50 [43]: > 100 µM (inactive); GI50 [15]: > 100 µM (inactive); GI50 [16]: > 100 µM (inactive); GI50 [19]: > 100 µM (inactive); GI50 [44]: > 100 µM (inactive); GI50 [20]: > 100 µM (inactive); GI50 [21]: > 100 µM (inactive); GI50 [22]: > 100 µM (inactive); GI50 [45]: > 100 µM (inactive); GI50 [46]: > 100 µM (inactive); GI50 [24]: > 100 µM (inactive); GI50 [26]: > 100 µM (inactive); GI50 [47]: > 100 µM (inactive); GI50 [27]: > 100 µM (inactive); GI50 [28]: > 100 µM (inactive); GI50 [48]: > 100 µM (inactive); GI50 [49]: > 100 µM (inactive); GI50 [50]: > 100 µM (inactive); GI50 [51]: > 100 µM (inactive); GI50 [30]: > 100 µM (inactive); GI50 [52]: > 100 µM (inactive); GI50 [53]: > 100 µM (inactive); GI50 [31]: > 100 µM (inactive); GI50 [54]: > 100 µM (inactive); GI50 [55]: > 100 µM (inactive); GI50 [32]: > 100 µM (inactive); GI50 [56]: > 100 µM (inactive); GI50 [57]: > 100 µM (inactive); GI50 [33]: > 100 µM (inactive); GI50 [34]: > 100 µM (inactive); GI50 [35]: > 100 µM (inactive); GI50 [58]: > 100 µM (inactive); GI50 [59]: > 100 µM (inactive); GI50 [36]: > 100 µM (inactive); GI50 [60]: > 100 µM (inactive); GI50 [61]: > 10 µM (inactive)

With CC(C)(C)OC(=O)N1N=NC2C3CC(=O)C(O3)C21 (configuration not stated) as the compound, how does the GI50 [3] read?
Its GI50 is > 100 µM (inactive).

What about the GI50 [5] of the same compound?
Its GI50 is > 100 µM (inactive).

What about the GI50 [7] of the same compound?
The GI50 was > 100 µM (inactive).

And the GI50 [37]?
Its GI50 is 86.1 µM (inactive).

And the GI50 [38]?
Its GI50 is > 10 µM (inactive).

What about the GI50 [8] of the same compound?
Its GI50 is > 100 µM (inactive).

What about the GI50 [39] of the same compound?
The GI50 was > 100 µM (inactive).

And the GI50 [40]?
The GI50 was > 100 µM (inactive).

What about the GI50 [11] of the same compound?
The GI50 was > 100 µM (inactive).

What about the GI50 [12] of the same compound?
The GI50 was > 100 µM (inactive).

What about the GI50 [42] of the same compound?
Its GI50 is > 100 µM (inactive).

What about the GI50 [13] of the same compound?
Its GI50 is > 100 µM (inactive).

What about the GI50 [14] of the same compound?
Its GI50 is > 100 µM (inactive).

What about the GI50 [16] of the same compound?
Its GI50 is > 100 µM (inactive).

What about the GI50 [18] of the same compound?
Its GI50 is > 100 µM (inactive).

And the GI50 [44]?
Its GI50 is > 100 µM (inactive).

And the GI50 [20]?
The GI50 was > 100 µM (inactive).

And the GI50 [46]?
Its GI50 is > 10 µM (inactive).

What about the GI50 [24] of the same compound?
The GI50 was > 100 µM (inactive).

And the GI50 [47]?
Its GI50 is > 100 µM (inactive).

And the GI50 [27]?
The GI50 was > 100 µM (inactive).

And the GI50 [28]?
Its GI50 is > 100 µM (inactive).

And the GI50 [48]?
The GI50 was > 10 µM (inactive).

And the GI50 [49]?
The GI50 was > 100 µM (inactive).

And the GI50 [50]?
The GI50 was > 100 µM (inactive).

And the GI50 [51]?
The GI50 was > 100 µM (inactive).

What about the GI50 [29] of the same compound?
Its GI50 is > 100 µM (inactive).

What about the GI50 [52] of the same compound?
The GI50 was > 10 µM (inactive).

What about the GI50 [54] of the same compound?
Its GI50 is > 100 µM (inactive).

What about the GI50 [55] of the same compound?
The GI50 was > 100 µM (inactive).

And the GI50 [32]?
Its GI50 is > 100 µM (inactive).

And the GI50 [57]?
Its GI50 is > 100 µM (inactive).

And the GI50 [33]?
The GI50 was > 100 µM (inactive).

And the GI50 [35]?
Its GI50 is > 100 µM (inactive).

And the GI50 [59]?
Its GI50 is > 100 µM (inactive).

What about the GI50 [36] of the same compound?
Its GI50 is > 100 µM (inactive).

And the GI50 [61]?
Its GI50 is > 100 µM (inactive).
